Measured values from publication PMC7736581, “Activation of the IRE1 RNase through remodeling of the kinase front pocket by ATP-competitive ligands” (Nature Communications, 2020).

Key:
Experiment in all cases: biochemical
Design in all cases: Invitrogen kinase panel: Z'Lyte activity (ATP at Km) or LanthaScreen competitive ATP-site binding, percent inhibition
PRKAA1 = PRKAA1 (Homo sapiens, UniProt Q13131)
Brk = target: T1, Brk (Homo sapiens, UniProt Q13882)
T1 construct: gene PTK6

KDR = KDR (Homo sapiens, UniProt P35968)
Syk = Syk (Homo sapiens, UniProt P43405)
MLK1 = target: T2, MLK1 (Homo sapiens, UniProt P80192)
T2 construct: gene MAP3K9
T2 sequence (P80192 whole entry): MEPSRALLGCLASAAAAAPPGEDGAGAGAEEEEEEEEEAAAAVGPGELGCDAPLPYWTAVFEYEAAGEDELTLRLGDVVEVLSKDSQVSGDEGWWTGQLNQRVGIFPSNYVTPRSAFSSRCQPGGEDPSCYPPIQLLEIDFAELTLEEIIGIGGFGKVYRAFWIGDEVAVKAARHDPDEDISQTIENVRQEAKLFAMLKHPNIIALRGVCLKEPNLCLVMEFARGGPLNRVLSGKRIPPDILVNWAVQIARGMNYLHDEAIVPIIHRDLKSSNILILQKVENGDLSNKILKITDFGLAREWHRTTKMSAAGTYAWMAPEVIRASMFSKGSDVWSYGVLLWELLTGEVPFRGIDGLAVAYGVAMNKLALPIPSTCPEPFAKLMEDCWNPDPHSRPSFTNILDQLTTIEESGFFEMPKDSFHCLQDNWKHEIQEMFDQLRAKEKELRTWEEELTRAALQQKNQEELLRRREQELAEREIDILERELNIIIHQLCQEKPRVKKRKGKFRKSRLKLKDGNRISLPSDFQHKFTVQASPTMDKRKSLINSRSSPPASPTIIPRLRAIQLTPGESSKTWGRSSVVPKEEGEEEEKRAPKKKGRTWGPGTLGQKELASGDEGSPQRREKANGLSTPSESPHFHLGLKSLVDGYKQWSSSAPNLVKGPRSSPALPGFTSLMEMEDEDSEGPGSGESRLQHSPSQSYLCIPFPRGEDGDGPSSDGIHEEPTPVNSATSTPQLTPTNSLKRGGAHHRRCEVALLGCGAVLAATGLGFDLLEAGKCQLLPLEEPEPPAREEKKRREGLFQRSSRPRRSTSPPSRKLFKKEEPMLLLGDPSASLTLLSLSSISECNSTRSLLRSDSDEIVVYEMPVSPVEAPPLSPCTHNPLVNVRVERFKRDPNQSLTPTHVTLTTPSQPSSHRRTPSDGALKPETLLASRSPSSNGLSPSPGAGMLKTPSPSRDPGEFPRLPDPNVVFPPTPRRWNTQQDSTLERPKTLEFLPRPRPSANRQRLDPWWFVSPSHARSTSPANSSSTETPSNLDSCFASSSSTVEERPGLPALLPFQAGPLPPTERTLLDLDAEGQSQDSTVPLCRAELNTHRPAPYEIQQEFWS

PAK1 = PAK1 (Homo sapiens, UniProt Q13153)
p70S6K = target: T3, p70S6K (Homo sapiens, UniProt P23443)
T3 construct: gene RPS6KB1

Srm = target: T4, Srm (Homo sapiens, UniProt Q9H3Y6)
T4 construct: gene SRMS
T4 sequence (Q9H3Y6 whole entry): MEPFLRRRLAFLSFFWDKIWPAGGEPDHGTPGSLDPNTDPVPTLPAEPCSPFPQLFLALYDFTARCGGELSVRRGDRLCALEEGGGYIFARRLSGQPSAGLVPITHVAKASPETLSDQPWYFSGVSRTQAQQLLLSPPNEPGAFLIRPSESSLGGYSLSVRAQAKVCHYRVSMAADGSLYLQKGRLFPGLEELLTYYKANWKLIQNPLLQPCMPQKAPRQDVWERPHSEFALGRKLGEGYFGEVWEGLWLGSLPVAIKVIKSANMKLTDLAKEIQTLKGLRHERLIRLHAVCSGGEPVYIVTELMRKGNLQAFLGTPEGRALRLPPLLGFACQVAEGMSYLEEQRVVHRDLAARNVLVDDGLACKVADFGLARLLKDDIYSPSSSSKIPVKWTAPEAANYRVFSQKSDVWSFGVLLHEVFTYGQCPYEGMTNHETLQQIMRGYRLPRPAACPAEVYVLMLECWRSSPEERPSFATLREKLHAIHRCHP

PKD1 = target: T5, PKD1 (Homo sapiens, UniProt Q15139)
T5 construct: gene PRKD1
T5 sequence (Q15139 1-912): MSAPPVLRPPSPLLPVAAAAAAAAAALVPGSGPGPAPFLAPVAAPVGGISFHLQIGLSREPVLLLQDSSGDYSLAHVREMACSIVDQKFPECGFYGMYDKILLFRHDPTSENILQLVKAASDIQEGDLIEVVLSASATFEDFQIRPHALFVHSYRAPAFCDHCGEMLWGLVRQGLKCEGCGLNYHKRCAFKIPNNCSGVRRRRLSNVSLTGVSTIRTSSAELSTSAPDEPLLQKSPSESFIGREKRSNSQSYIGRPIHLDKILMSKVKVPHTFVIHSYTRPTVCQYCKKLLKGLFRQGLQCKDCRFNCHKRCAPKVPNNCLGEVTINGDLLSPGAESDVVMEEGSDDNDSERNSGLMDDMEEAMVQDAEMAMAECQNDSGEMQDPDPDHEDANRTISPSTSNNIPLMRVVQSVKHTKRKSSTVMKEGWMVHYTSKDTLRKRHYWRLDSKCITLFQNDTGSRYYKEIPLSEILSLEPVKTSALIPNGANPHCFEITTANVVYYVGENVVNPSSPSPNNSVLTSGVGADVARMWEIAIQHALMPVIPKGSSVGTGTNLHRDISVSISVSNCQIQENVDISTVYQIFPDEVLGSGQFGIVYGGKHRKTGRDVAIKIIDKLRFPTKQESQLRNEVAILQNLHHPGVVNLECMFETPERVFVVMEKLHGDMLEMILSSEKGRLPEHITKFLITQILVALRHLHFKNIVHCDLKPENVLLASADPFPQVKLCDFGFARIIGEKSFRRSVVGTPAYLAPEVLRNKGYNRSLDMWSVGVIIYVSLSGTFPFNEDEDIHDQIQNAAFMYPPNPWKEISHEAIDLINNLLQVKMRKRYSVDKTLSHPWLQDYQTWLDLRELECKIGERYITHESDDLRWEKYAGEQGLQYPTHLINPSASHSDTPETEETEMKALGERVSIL

IKK_epsilon = target: T6, IKK_epsilon (Homo sapiens, UniProt Q14164)
T6 construct: gene IKBKE
T6 sequence (Q14164 1-716): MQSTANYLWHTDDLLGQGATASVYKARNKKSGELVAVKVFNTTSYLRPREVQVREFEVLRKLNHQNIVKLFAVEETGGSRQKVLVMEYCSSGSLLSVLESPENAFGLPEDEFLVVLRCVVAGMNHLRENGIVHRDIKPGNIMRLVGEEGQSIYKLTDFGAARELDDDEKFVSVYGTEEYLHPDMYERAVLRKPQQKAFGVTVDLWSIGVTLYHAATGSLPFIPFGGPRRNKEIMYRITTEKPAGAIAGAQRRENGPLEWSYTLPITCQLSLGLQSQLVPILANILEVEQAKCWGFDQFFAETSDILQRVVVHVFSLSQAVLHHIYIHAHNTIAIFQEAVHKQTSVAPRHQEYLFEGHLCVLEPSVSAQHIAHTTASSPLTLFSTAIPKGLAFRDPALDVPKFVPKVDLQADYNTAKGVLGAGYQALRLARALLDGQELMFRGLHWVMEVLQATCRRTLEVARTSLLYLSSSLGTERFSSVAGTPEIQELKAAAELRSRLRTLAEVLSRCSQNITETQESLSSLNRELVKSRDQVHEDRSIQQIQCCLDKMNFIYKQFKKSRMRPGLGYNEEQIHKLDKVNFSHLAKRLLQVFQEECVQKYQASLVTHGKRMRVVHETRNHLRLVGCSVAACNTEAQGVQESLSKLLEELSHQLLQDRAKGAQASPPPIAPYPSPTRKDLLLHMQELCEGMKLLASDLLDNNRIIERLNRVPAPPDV

EphA7 = EphA7 (Homo sapiens, UniProt Q15375)
EphA7, sequence (Q15375 whole entry): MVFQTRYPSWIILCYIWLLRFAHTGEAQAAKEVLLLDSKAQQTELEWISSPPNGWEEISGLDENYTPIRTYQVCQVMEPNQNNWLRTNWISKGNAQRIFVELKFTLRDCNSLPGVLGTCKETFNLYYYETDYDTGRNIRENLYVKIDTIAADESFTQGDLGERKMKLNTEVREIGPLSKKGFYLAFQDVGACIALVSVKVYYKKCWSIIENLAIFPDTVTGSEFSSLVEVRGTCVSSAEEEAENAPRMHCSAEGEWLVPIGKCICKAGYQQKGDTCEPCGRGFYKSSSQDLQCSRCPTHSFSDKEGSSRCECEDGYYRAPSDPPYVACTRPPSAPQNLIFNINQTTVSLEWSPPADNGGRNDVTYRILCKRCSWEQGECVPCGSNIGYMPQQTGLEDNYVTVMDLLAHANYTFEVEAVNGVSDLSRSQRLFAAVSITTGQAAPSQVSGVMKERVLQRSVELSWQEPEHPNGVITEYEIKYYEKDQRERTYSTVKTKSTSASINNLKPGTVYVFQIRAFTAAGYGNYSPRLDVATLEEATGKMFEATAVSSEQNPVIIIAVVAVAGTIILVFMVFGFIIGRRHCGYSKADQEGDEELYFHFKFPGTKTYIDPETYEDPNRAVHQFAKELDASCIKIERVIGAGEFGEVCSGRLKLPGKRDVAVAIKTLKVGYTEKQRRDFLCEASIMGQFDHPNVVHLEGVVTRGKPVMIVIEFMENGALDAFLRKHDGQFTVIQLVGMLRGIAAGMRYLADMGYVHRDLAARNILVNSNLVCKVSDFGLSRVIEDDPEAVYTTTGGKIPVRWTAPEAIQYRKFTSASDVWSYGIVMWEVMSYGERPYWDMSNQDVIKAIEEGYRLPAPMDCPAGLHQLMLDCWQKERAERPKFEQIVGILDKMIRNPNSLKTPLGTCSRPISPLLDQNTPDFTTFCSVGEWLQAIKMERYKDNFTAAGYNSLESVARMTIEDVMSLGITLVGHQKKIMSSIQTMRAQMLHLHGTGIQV

B-Raf = target: T7, B-Raf (Homo sapiens, UniProt P15056)
T7 construct: gene BRAF
T7 sequence (P15056 whole entry): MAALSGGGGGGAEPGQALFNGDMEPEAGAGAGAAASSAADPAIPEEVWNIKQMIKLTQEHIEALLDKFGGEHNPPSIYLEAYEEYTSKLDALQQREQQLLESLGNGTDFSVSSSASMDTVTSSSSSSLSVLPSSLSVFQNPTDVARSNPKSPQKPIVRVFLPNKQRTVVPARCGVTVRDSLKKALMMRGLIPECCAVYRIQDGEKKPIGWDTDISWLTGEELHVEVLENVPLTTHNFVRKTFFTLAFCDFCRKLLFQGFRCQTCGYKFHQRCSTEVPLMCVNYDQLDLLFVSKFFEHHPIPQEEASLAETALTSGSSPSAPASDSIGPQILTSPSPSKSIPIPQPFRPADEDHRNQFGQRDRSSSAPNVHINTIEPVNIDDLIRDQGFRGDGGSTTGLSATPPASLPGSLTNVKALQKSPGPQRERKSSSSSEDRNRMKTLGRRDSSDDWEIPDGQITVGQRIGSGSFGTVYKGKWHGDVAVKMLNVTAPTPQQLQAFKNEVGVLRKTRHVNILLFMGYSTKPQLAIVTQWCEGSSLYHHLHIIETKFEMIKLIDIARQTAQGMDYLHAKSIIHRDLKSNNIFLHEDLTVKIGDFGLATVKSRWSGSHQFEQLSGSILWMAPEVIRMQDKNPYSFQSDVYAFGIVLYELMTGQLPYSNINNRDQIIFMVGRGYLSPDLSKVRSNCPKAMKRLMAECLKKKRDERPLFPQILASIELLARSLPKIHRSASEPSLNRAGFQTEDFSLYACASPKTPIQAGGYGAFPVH

T1 sequence (Q13882 whole entry): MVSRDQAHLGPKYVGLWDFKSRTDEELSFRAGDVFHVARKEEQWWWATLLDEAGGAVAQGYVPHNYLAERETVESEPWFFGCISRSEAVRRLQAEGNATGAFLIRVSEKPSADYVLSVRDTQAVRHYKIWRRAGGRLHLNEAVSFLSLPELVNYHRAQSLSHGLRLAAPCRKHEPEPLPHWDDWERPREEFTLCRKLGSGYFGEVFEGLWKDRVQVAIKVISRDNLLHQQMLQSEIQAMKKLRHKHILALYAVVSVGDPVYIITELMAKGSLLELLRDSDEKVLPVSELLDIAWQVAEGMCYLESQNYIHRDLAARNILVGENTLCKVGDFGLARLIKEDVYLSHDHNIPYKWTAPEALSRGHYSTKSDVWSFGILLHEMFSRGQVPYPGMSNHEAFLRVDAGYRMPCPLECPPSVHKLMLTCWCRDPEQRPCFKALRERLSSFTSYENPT
PRKAA1, sequence (Q13131 whole entry): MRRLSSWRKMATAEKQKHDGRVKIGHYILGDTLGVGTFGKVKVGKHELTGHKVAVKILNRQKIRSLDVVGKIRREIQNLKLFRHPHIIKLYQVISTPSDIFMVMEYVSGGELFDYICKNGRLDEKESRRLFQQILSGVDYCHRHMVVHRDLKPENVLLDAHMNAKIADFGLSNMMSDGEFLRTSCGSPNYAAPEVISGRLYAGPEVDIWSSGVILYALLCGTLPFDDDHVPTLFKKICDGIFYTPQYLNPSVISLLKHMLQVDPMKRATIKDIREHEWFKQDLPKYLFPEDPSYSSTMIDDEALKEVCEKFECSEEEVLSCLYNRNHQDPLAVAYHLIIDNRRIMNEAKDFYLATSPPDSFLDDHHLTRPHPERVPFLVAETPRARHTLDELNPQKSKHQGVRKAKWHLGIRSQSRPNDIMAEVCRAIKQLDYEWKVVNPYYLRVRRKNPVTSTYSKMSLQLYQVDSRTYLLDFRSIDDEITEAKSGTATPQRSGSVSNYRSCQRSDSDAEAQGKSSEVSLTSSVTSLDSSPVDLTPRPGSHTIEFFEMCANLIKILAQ
PRKAA1, sequence (P54619 whole entry partner): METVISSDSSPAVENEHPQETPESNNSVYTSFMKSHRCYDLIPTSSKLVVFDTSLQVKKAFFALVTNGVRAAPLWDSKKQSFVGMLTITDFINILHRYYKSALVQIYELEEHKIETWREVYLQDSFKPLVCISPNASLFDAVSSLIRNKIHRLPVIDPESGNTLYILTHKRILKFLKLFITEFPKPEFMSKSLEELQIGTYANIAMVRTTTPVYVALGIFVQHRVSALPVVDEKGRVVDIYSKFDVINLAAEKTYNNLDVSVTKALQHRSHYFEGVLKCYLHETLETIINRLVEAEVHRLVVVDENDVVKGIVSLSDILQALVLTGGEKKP
PRKAA1, sequence (Q9Y478 whole entry partner): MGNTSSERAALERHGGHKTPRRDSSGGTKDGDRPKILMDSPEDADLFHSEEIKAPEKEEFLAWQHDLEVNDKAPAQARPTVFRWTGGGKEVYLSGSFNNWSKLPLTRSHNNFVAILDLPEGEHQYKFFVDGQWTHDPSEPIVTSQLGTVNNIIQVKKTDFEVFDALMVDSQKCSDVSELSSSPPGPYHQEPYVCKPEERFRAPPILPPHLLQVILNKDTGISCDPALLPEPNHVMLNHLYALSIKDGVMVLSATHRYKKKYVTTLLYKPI

Row | SMILES | inhibition at 1 µM (PRKAA1) [%] | inhibition at 1 µM (Brk) [%] | inhibition at 1 µM (KDR) [%] | inhibition at 1 µM (Syk) [%] | inhibition at 1 µM (MLK1) [%] | inhibition at 1 µM (PAK1) [%] | inhibition at 1 µM (p70S6K) [%] | inhibition at 1 µM (Srm) [%] | inhibition at 1 µM (PKD1) [%] | inhibition at 1 µM (IKK_epsilon) [%] | inhibition at 1 µM (EphA7) [%] | inhibition at 1 µM (B-Raf) [%]
1 | CCOC(=O)Nc1cccc2c(Oc3ncccc3-c3ccnc(N[C@H]4CCCNC4)n3)c(C)ccc12 [G-1749] | 0 | 1.8 | -18 | -2.5 | -8.5 | 7 | 2.5 | -4.5 | 33.5 | 4 | 9.5 | 9.5
2 | CC#CC(=O)Nc1cccc2c(Oc3ncccc3-c3ccnc(N[C@H]4CCCNC4)n3)c(C)ccc12 [G-7658] | 12 | -9 | -4 | -4.5 | -2.5 | 5 | -1 | 3 | 31 | 6.5 | -1 | 5.5
3 | O=c1cc(-c2n[nH]c3ncc(-c4c(F)cccc4F)cc23)nc(N2CCC(O)CC2)[nH]1 [G-9807] | 96.2 | 26.8 | 96.3 | 52 | 98.1 | 85.7 | 88.7 | 67.6 | 97.5 | 86.5 | 84.2 | 81.2
